Experimental data as given in ChEMBL document CHEMBL3994622, “Design and synthesis of new RAF kinase-inhibiting antiproliferative quinoline derivatives. Part 2: Diarylurea derivatives” (Eur J Med Chem, 2017).

Tests used:
Assay type in all cases: functional
SR = assay: Growth inhibition of human SR cells assessed as cell growth at 0.3 uM incubated for 48 hrs by sulforhodamine B assay relative to control; conditions: read-out: Activity
U-251 [1] = assay: Growth inhibition of human U251 cells assessed as cell growth at 0.03 uM incubated for 48 hrs by sulforhodamine B assay relative to control; conditions: U-251, 48 h, read-out: Activity
SF-295 = assay: Growth inhibition of human SF295 cells assessed as cell growth at 0.3 uM incubated for 48 hrs by sulforhodamine B assay relative to control; conditions: SF-295, 48 h, read-out: Activity
CAKI-1 [2] = assay: Growth inhibition of human Caki1 cells assessed as cell growth at 0.3 uM incubated for 48 hrs by sulforhodamine B assay relative to control; conditions: CAKI-1, 48 h, read-out: Activity
U-251 [3] = assay: Growth inhibition of human U251 cells assessed as cell growth at 30 uM incubated for 48 hrs by sulforhodamine B assay relative to control; conditions: U-251, 48 h, read-out: Activity
NCI-H522 [4] = assay: Growth inhibition of human NCI-H522 cells assessed as cell growth at 0.3 uM incubated for 48 hrs by sulforhodamine B assay relative to control; conditions: NCI-H522, 48 h, read-out: Activity
CAKI-1 [5] = assay: Growth inhibition of human Caki1 cells assessed as cell growth at 30 uM incubated for 48 hrs by sulforhodamine B assay relative to control; conditions: CAKI-1, 48 h, read-out: Activity
RPMI-8226 = assay: Growth inhibition of human RPMI8226 cells assessed as cell growth at 0.3 uM incubated for 48 hrs by sulforhodamine B assay relative to control; conditions: RPMI-8226, 48 h, read-out: Activity
HT-29 = assay: Growth inhibition of human HT-29 cells assessed as cell growth at 30 uM incubated for 48 hrs by sulforhodamine B assay relative to control; conditions: HT-29, 48 h, read-out: Activity
HL-60(TB) = assay: Growth inhibition of human HL-60(TB) cells assessed as cell growth at 0.3 uM incubated for 48 hrs by sulforhodamine B assay relative to control; conditions: HL-60, 48 h, read-out: Activity
MDA-MB-231 = assay: Growth inhibition of human MDA-MB-231 cells assessed as cell growth at 0.003 uM incubated for 48 hrs by sulforhodamine B assay relative to control; conditions: MDA-MB-231, 48 h, read-out: Activity
HOP-92 = assay: Growth inhibition of human HOP92 cells assessed as cell growth at 30 uM incubated for 48 hrs by sulforhodamine B assay relative to control; conditions: HOP-92, 48 h, read-out: Activity
DU-145 = assay: Growth inhibition of human DU145 cells assessed as cell growth at 0.3 uM incubated for 48 hrs by sulforhodamine B assay relative to control; conditions: DU-145, 48 h, read-out: Activity
SW-620 = assay: Growth inhibition of human SW620 cells assessed as cell growth at 30 uM incubated for 48 hrs by sulforhodamine B assay relative to control; conditions: SW-620, 48 h, read-out: Activity
NCI-H322M = assay: Growth inhibition of human NCI-H322M cells assessed as cell growth at 0.3 uM incubated for 48 hrs by sulforhodamine B assay relative to control; conditions: read-out: Activity
786-0 = assay: Growth inhibition of human 786-0 cells assessed as cell growth at 30 uM incubated for 48 hrs by sulforhodamine B assay relative to control; conditions: 786-0, 48 h, read-out: Activity
NCI-H460 = assay: Growth inhibition of human NCI-H460 cells assessed as cell growth at 0.03 uM incubated for 48 hrs by sulforhodamine B assay relative to control; conditions: NCI-H460, 48 h, read-out: Activity
MDA-MB-435 [6] = assay: Growth inhibition of human MDA-MB-435 cells assessed as cell growth at 0.3 uM incubated for 48 hrs by sulforhodamine B assay relative to control; conditions: MDA-MB-435, 48 h, read-out: Activity
TK-10 = assay: Growth inhibition of human TK10 cells assessed as cell growth at 30 uM incubated for 48 hrs by sulforhodamine B assay relative to control; conditions: TK-10, 48 h, read-out: Activity
HCC 2998 = assay: Growth inhibition of human HCC2998 cells assessed as cell growth at 10 uM incubated for 48 hrs by sulforhodamine B assay relative to control; conditions: HCC 2998, 48 h, read-out: Activity
CAKI-1 [7] = assay: Growth inhibition of human Caki1 cells assessed as cell growth at 1 uM incubated for 48 hrs by sulforhodamine B assay relative to control; conditions: CAKI-1, 48 h, read-out: Activity
MCF7 = assay: Growth inhibition of human MCF7 cells assessed as cell growth at 10 uM incubated for 48 hrs by sulforhodamine B assay relative to control; conditions: MCF7, 48 h, read-out: Activity
SF-539 = assay: Growth inhibition of human SF539 cells assessed as cell growth at 100 uM incubated for 48 hrs by sulforhodamine B assay relative to control; conditions: SF-539, 48 h, read-out: Activity
HOP-62 = assay: Growth inhibition of human HOP62 cells assessed as cell growth at 1 uM incubated for 48 hrs by sulforhodamine B assay relative to control; conditions: HOP-62, 48 h, read-out: Activity
SN12C = assay: Growth inhibition of human SN12C cells assessed as cell growth at 0.1 uM incubated for 48 hrs by sulforhodamine B assay relative to control; conditions: read-out: Activity
COLO 205 = assay: Growth inhibition of human COLO205 cells assessed as cell growth at 100 uM incubated for 48 hrs by sulforhodamine B assay relative to control; conditions: COLO 205, 48 h, read-out: Activity
KM12 = assay: Growth inhibition of human KM12 cells assessed as cell growth at 0.01 uM incubated for 48 hrs by sulforhodamine B assay relative to control; conditions: KM12, 48 h, read-out: Activity
Hs-578T = assay: Growth inhibition of human Hs 578T cells assessed as cell growth at 10 uM incubated for 48 hrs by sulforhodamine B assay relative to control; conditions: read-out: Activity
NCI-H522 [8] = assay: Growth inhibition of human NCI-H522 cells assessed as cell growth at 1 uM incubated for 48 hrs by sulforhodamine B assay relative to control; conditions: NCI-H522, 48 h, read-out: Activity
T47D = assay: Growth inhibition of human T47D cells assessed as cell growth at 1 uM incubated for 48 hrs by sulforhodamine B assay relative to control; conditions: read-out: Activity
MOLT-4 [9] = assay: Growth inhibition of human MOLT4 cells assessed as cell growth at 100 uM incubated for 48 hrs by sulforhodamine B assay relative to control; conditions: MOLT-4, 48 h, read-out: Activity
MOLT-4 [10] = assay: Growth inhibition of human MOLT4 cells assessed as cell growth at 0.1 uM incubated for 48 hrs by sulforhodamine B assay relative to control; conditions: MOLT-4, 48 h, read-out: Activity
MDA-MB-435 [11] = assay: Growth inhibition of human MDA-MB-435 cells assessed as cell growth at 0.01 uM incubated for 48 hrs by sulforhodamine B assay relative to control; conditions: MDA-MB-435, 48 h, read-out: Activity
LOX IMVI = assay: Growth inhibition of human LOXIMVI cells assessed as cell growth at 1 uM incubated for 48 hrs by sulforhodamine B assay relative to control; conditions: read-out: Activity

COc1cc2cc(Oc3ccc(NC(=O)Nc4ccc(Cl)c(C(F)(F)F)c4)cc3)c(C)nc2cc1OC
growth at 0.3 µM (SR): 91%
growth at 0.03 µM (U-251 [1]): 97%
growth at 0.3 µM (SF-295): 93%
growth at 0.3 µM (CAKI-1 [2]): 87%
growth at 30 µM (U-251 [3]): -89%
growth at 0.3 µM (NCI-H522 [4]): 85%
growth at 30 µM (CAKI-1 [5]): -55%
growth at 0.3 µM (RPMI-8226): 85%
growth at 30 µM (HT-29): -82%
growth at 0.3 µM (HL-60(TB)): 111%
growth at 0.003 µM (MDA-MB-231): 101%
growth at 30 µM (HOP-92): -79%
growth at 0.3 µM (DU-145): 95%
growth at 30 µM (SW-620): -87%
growth at 0.3 µM (NCI-H322M): 112%
growth at 30 µM (786-0): -71%
growth at 0.03 µM (NCI-H460): 105%
growth at 0.3 µM (MDA-MB-435 [6]): 91%
growth at 30 µM (TK-10): -46%

COc1cc2cc(Oc3ccc(NC(=O)Nc4ccc(Cl)c(Cl)c4)cc3)c(C)nc2cc1OC
growth at 10 µM (HCC 2998): 34%
growth at 1 µM (CAKI-1 [7]): 83%
growth at 10 µM (MCF7): 8%
growth at 100 µM (SF-539): -54%
growth at 1 µM (HOP-62): 101%
growth at 0.1 µM (SN12C): 95%
growth at 100 µM (COLO 205): -100%
growth at 0.01 µM (KM12): 103%
growth at 10 µM (Hs-578T): -2%
growth at 1 µM (NCI-H522 [8]): 68%
growth at 1 µM (T47D): 88%
growth at 100 µM (MOLT-4 [9]): -12%
growth at 0.1 µM (MOLT-4 [10]): 109%
growth at 0.01 µM (MDA-MB-435 [11]): 94%
growth at 1 µM (LOX IMVI): 85%

Cc1nc2cc(O)c(O)cc2cc1Oc1ccc(NC(=O)Nc2ccc(Cl)c(Cl)c2)cc1
growth at 0.3 µM (SR): 98%
growth at 0.03 µM (U-251 [1]): 94%
growth at 0.3 µM (SF-295): 89%
growth at 0.3 µM (CAKI-1 [2]): 95%
growth at 30 µM (U-251 [3]): 3%
growth at 0.3 µM (NCI-H522 [4]): 93%
growth at 30 µM (CAKI-1 [5]): -2%
growth at 0.3 µM (RPMI-8226): 97%
growth at 30 µM (HT-29): 13%
growth at 0.3 µM (HL-60(TB)): 106%
growth at 0.003 µM (MDA-MB-231): 110%
growth at 30 µM (HOP-92): -20%
growth at 0.3 µM (DU-145): 106%
growth at 30 µM (SW-620): 16%
growth at 0.3 µM (NCI-H322M): 110%
growth at 30 µM (786-0): -31%
growth at 0.03 µM (NCI-H460): 99%
growth at 0.3 µM (MDA-MB-435 [6]): 90%
growth at 30 µM (TK-10): 23%

COc1cc2cc(Oc3ccc(NC(=O)Nc4cc(C(F)(F)F)cc(C(F)(F)F)c4)cc3)c(C)nc2cc1OC
growth at 10 µM (HCC 2998): -80%
growth at 1 µM (CAKI-1 [7]): 63%
growth at 10 µM (MCF7): -59%
growth at 100 µM (SF-539): -74%
growth at 1 µM (HOP-62): 70%
growth at 0.1 µM (SN12C): 100%
growth at 100 µM (COLO 205): -79%
growth at 0.01 µM (KM12): 98%
growth at 10 µM (Hs-578T): -19%
growth at 1 µM (NCI-H522 [8]): 63%
growth at 1 µM (T47D): 64%
growth at 100 µM (MOLT-4 [9]): -42%
growth at 0.1 µM (MOLT-4 [10]): 104%
growth at 0.01 µM (MDA-MB-435 [11]): 94%
growth at 1 µM (LOX IMVI): 75%
